Data published in US8338450B2, “Compounds as dipeptidyl peptidase IV (DPP IV) inhibitors” (Lupin Limited, priority 2007, dated 2012).
Structures can show the parent of a compound that is named as a salt.

Target: T1, human recombinant DPP-IV (Homo sapiens, UniProt P27487)
T1 construct: purchased R&D Systems, USA (or produced in-house)
Assay: Inhibition of human recombinant DPP-IV (Gly-Pro-AMC hydrolysis, fluorometric)
Format: biochemical
Settings: for IC50: human recombinant DPP-IV, 50 μM Gly-Pro-AMC, 30 min at 30° C.
Protocol: Inhibition of Human Recombinant DPP-IV
The proteolytic activity of human recombinant DPP-IV was determined by following the hydrolysis of Gly-Pro-7-amino-4-methylcoumarin (Gly-Pro-AMC) and the fluorometric quantitation of the liberated AMC. Assays were routinely carried out in 96-well flat-bottom black microwell plates. The reaction mixture (100 μl) contained 10 ng of human recombinant DPP-IV enzyme (produced in-house or procured from R&D Systems, USA) in the assay buffer (25 mM Tris-HCl, pH 7.4, 140 mM NaCl, 10 mM KCl and 0.1 mg/ml BSA) and 50 μM Gly-Pro-AMC. After incubation of assay plates at 30° C. for 30 min, the hydrolysis of Gly-Pro-AMC was monitored in a fluorescence microplate reader (Molecular Devices SpectraMax M5), with excitation and emission wavelengths set at 360 nm and 460 nm, respectively.
The inhibition of DPP-IV activity by test compounds was routinely performed by preincubating the enzyme with test compound (10 and 100 nM for primary screening and 8 concentrations from 0.1 to 1000 nM for the dose-response study) or vehicle (0.01% DMSO) for 15 min at 30° C., in a total volume of 90 μl. Test compounds were dissolved in DMSO at a concentration of 10 mM and serially diluted further in assay buffer. The enzyme reaction was initiated by the addition of Gly-Pro-AMC, followed by incubation of assay plates for 30 min at 30° C. and the liberated AMC was measured as described above. A known inhibitor of DPP-IV (positive control) was always included in the assay. Test compounds at various concentrations were always evaluated in duplicate, along with substrate blanks, vehicle controls and positive controls.
The results are expressed as percent inhibition of the enzyme activity relative to vehicle controls. Dose-response studies were conducted for those compounds exerting ≧50% inhibition of activity at 10 nM in primary screening. IC50, defined as the inhibitor concentration which caused a 50% decrease of the activity under assay conditions, was computed using GraphPad Prism software, version 5.0.
The DPP-IV inhibition data (expressed either as IC50 in nanomolar or percent inhibition at a particular compound concentration) is presented in Table 1.

[1] = compound 10 nM, relative to vehicle controls

T1 sequence (P27487 whole entry): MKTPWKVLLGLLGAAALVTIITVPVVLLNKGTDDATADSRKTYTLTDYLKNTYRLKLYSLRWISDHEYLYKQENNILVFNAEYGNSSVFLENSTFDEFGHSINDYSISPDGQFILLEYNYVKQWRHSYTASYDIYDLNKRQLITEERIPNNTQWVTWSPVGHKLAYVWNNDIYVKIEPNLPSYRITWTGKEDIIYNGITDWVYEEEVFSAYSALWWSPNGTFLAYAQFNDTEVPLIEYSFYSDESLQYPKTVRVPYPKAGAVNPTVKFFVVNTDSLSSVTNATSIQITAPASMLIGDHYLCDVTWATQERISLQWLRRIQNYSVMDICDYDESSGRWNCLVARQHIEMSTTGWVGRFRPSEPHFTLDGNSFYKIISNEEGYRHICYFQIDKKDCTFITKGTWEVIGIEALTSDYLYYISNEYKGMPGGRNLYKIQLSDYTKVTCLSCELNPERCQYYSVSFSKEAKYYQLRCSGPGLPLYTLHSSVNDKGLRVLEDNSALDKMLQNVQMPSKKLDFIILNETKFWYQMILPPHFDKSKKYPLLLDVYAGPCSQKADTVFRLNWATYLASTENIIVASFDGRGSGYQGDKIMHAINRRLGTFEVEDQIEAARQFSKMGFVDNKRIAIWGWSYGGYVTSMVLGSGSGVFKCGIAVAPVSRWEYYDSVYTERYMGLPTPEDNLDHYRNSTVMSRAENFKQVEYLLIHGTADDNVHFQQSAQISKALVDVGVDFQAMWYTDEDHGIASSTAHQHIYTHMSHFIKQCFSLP

| Compound | % inhibition at 10 nM [1] | IC50 | also measured |
| --- | --- | --- | --- |
| CCC(CC)N1C2CCC1CC([C@H](N)C(=O)N1[C@H](C#N)C[C@@H]3C[C@@H]31)C2.O=C(O)C(F)(F)F (stereo partly drawn) [Compound 59, (1S,3S,5S)-2-{(2S)-2-Amino-2-[8-(1-ethyl-propyl)-8-aza-bicyclo[3.2.1]oct-3-yl]-exo-ethanoyl}-2-azabicyclo[3.1.0]hexane-3-carbonitrile trifluoroacetic acid salt] | 34% inhibition at 10 nM | – | – |
| N#C[C@@H]1CCCN1C(=O)[C@@H](N)C1CC2CCC(C1)N2C(=O)C12CC3CC(CC(C3)C1)C2 (stereo partly drawn) [Compound 3, (2S)-1-{(2S)-2-Amino-2-[8-(adamantane-1-carbonyl)-8-aza-bicyclo[3.2.1]oct-3-yl]-exo-ethanoyl}-pyrrolidin-2-carbonitrile trifluoroacetic acid salt] | – | 6.67 nM | – |
| N#C[C@@H]1C[C@@H]2C[C@@H]2N1C(=O)[C@@H](N)C1CC2CCC(C1)N2CCC(F)(F)F.O=C(O)C(F)(F)F (stereo partly drawn) [Compound 47, (1S,3S,5S)-2-{(2S)-2-Amino-2-[8-(3,3,3-trifluoropropyl)-8-aza-bicyclo[3.2.1]oct-3-yl]-exo-ethanoyl}-2-azabicyclo[3.1.0]hexane-3-carbonitrile trifluoroacetic acid salt] | 29% inhibition at 10 nM | – | – |
| N#C[C@H]1CC[C@@H](C(=O)OCc2ccccc2)N1C(=O)[C@@H](N)C1CC2CCC(C1)N2C(=O)c1ccc(C(F)(F)F)cc1 (stereo partly drawn) [Compound 18, Benzyl-(2S,5R)-1-{(2S)-2-amino-2-[8-(4-trifluoromethyl-benzoyl)-8-aza-bicyclo[3.2.1]-oct-3-yl]-exo-ethanoyl}-5-cyano pyrrolidin-2-carboxylate trifluoroacetic acid salt] | – | – | inhibition at 0.01 µM (compound 10 nM, relative to vehicle controls, read-out: % inhibition at 10 nM): 1.11% |
| N#C[C@H]1C[C@H]2C[C@H]2N1C(=O)[C@@H](N)C1CC2CCC(C1)N2C(=O)c1cnccn1.O=C(O)C(F)(F)F (stereo partly drawn) [Compound 37, (1R,3R,5R)-2-{(2S)-2-Amino-2-[8-(pyrazine-2-carbonyl)-8-aza-bicyclo[3.2.1]oct-3-yl]-exo-ethanoyl}-2-azabicyclo[3.1.0]hexane-3-carbonitrile trifluoroacetic acid salt] | 7% inhibition at 10 nM | – | – |
| N#C[C@@H]1C[C@@H]2C[C@@H]2N1C(=O)[C@@H](N)C1CC2CCC(C1)N2C(=O)C1CCCCC1.O=C(O)C(F)(F)F (stereo partly drawn) [Compound 58, (1S,3S,5S)-2-{(2S)-2-Amino-2-[8-(cyclohexane-carbonyl)-8-aza-bicyclo[3.2.1]oct-3-yl]-exo-ethanoyl}-2-azabicyclo[3.1.0]hexane-3-carbonitrile trifluoroacetic acid salt] | 31% inhibition at 10 nM | – | – |
| N#C[C@@H]1C[C@@H]2C[C@@H]2N1C(=O)[C@H](N)C1CC2CCC(C1)N2C(=O)c1ccnc(F)c1.O=C(O)C(F)(F)F (stereo partly drawn) [Compound 31, (1S,3S,5S)-2-{(2R)-2-Amino-2-[8-(2-fluoropyridine-4-carbonyl)-8-aza-bicyclo[3.2.1]oct-3-yl]-exo-ethanoyl}-2-azabicyclo[3.1.0]hexane-3-carbonitrile trifluoroacetic acid salt] | 6% inhibition at 10 nM | – | – |
| N#C[C@@H]1C[C@@H]2C[C@@H]2N1C(=O)[C@@H](N)C1CC2CCC(C1)N2CCOCc1ccccc1.O=C(O)C(F)(F)F (stereo partly drawn) [Compound 50, (1S,3S,5S)-2-{(2S)-2-Amino-2-[8-(benzyloxy-ethyl)-8-aza-bicyclo[3.2.1]oct-3-yl]-exo-ethanoyl}-2-azabicyclo[3.1.0]hexane-3-carbonitrile trifluoroacetic acid salt] | 21% inhibition at 10 nM | – | – |
| N#C[C@@H]1C[C@@H]2C[C@@H]2N1C(=O)[C@@H](N)C1CC2CCC(C1)N2C(=O)c1cc(F)ccc1F (stereo partly drawn) [Compound 27, (1S,3S,5S)-2-{(2S)-2-Amino-2-[8-(2,5-difluorobenzoyl)-8-aza-bicyclo[3.2.1]oct-3-yl]-exo-ethanoyl}-2-azabicyclo[3.1.0]hexane-3-carbonitrile trifluoroacetic acid salt] | – | 17.2 nM | – |
| N#C[C@@H]1C[C@@H]2C[C@@H]2N1C(=O)[C@@H](N)C1CC2CCC(C1)N2C(=O)c1cccnc1F (stereo partly drawn) [Compound 32, (1S,3S,5S)-2-{(2S)-2-Amino-2-[8-(2-fluoropyridine-3-carbonyl)-8-aza-bicyclo[3.2.1]oct-3-yl]-exo-ethanoyl}-2-azabicyclo[3.1.0]hexane-3-carbonitrile trifluoroacetic acid salt] | – | 6.84 nM | – |
| N#C[C@@H]1C[C@@H]2C[C@@H]2N1C(=O)[C@@H](N)C1CC2CCC(C1)N2C(=O)c1ccco1.O=C(O)C(F)(F)F (stereo partly drawn) [Compound 40, (1S,3S,5S)-2-{(2S)-2-Amino-2-[8-(furan-2-carbonyl)-8-aza-bicyclo[3.2.1]oct-3-yl]-exo-ethanoyl}-2-azabicyclo[3.1.0]hexane-3-carbonitrile trifluoroacetic acid salt] | 44% inhibition at 10 nM | – | – |
| N#C[C@@H]1C[C@@H]2C[C@@H]2N1C(=O)[C@@H](N)C1CC2CCC(C1)N2C(=O)c1ccc2c(c1)OCO2 (stereo partly drawn) [Compound 44, (1S,3S,5S)-2-{(2S)-2-Amino-2-[8-(benzo[1,3]-dioxole-5-carbonyl)-8-aza-bicyclo[3.2.1]oct-3-yl]-exo-ethanoyl}-2-azabicyclo[3.1.0]-hexane-3-carbonitrile trifluoroacetic acid salt] | – | 2.4 nM | – |
| N#C[C@@H]1CCCN1C(=O)[C@@H](N)C1CC2CCC(C1)N2C(=O)c1ccnc(F)c1 (stereo partly drawn) [Compound 7, (2S)-1-{(2S)-2-Amino-2-[8-(2-fluoro-pyridine-4-carbonyl)-8-aza-bicyclo[3.2.1]oct-3-yl]-exo-ethanoyl}-pyrrolidin-2-carbonitrile trifluoroacetic acid salt] | – | 1.9 nM | – |
| N#C[C@@H]1C[C@@H]2C[C@@H]2N1C(=O)[C@@H](N)C1CC2CCC(C1)N2C(=O)c1ccc(C(F)(F)F)cc1 (stereo partly drawn) [Compound 26, (1S,3S,5S)-2-{(2S)-2-Amino-2-[8-(4-trifluoromethylbenzoyl)-8-aza-bicyclo[3.2.1]oct-3-yl]-exo-ethanoyl}-2-azabicyclo[3.1.0]hexane-3-carbonitrile trifluoroacetic acid salt] | – | 8.9 nM | – |
| NC(=O)[C@@H]1C[C@@H]2C[C@@H]2N1C(=O)[C@@H](N)C1CC2CCC(C1)N2C(=O)c1ccc2c(c1)OCO2 (stereo partly drawn) [Compound 45, (1S,3S,5S)-2-{(2S)-2-Amino-2-[8-(benzo-[1,3]dioxole-5-carbonyl)-8-aza-bicyclo[3.2.1]oct-3-yl]-exo-ethanoyl}-2-azabicyclo[3.1.0]-hexane-3-carboxamide trifluoro acetic acid salt] | – | – | inhibition at 1 µM (read-out: % inhibition at 1000 nM): 12% |
| N#C[C@@H]1C[C@@H]2C[C@@H]2N1C(=O)[C@@H](N)C1CC2CCC(C1)N2C(=O)NS(=O)(=O)c1ccc(Cl)cc1.O=C(O)C(F)(F)F (stereo partly drawn) [Compound 61, (1S,3S,5S)-2-{(2S)-2-Amino-2-[8-(4-chlorophenylsulfonylcarbamoyl)-8-aza-bicyclo[3.2.1]oct-3-yl]-exo-ethanoyl}-2-azabicyclo[3.1.0]hexane-3-carbonitrile trifluoroacetic acid salt] | 9% inhibition at 10 nM | – | – |
| N#C[C@H]1C[C@H]2C[C@H]2N1C(=O)[C@H](N)C1CC2CCC(C1)N2C(=O)c1cnccn1.O=C(O)C(F)(F)F (stereo partly drawn) [Compound 38, (1R,3R,5R)-2-{(2R)-2-Amino-2-[8-(pyrazin-2-carbonyl)-8-aza-bicyclo[3.2.1]oct-3-yl]-exo-ethanoyl}-2-azabicyclo[3.1.0]hexane-3-carbonitrile trifluoroacetic acid salt] | – | – | % inhibition at 100 nM (compound 100 nM, relative to vehicle controls): 16% inhibition at 100 nM |
